Measured values published in patent publication US20030027745A1, “Diagnostic and prognostic method for evaluating ocular inflammation and oxidative stress and the treatment of the same” (priority 2001, published 2003).

How the values were obtained:
[1] = test system: reduced blood glutathione (GSH); assay: Blood glutathione (GSH) levels in an ARMD patient before and after NAC treatment; assay type: in vivo; settings: ARMD patient taking NAC compared to the same patient before taking NAC, FIG. 1
Source text: FIG. 1 is a chart showing the decreased reduced blood glutathione (GSH) levels in an Age-Related Macular Degeneration patient, prior to and following treatment of the patient with N-acetylcysteine (NAC).
It is known that GSH levels decrease in cells that are exposed to oxidative stress and inflammation. Decreases in GSH lead to even further increased oxidative stresses. […] Since it shown that patients with ARMD, as opposed to the control subjects, have decreased levels of GSH and that the levels of GSH increased following NAC treatment, alterations in GSH, GSSG and other factors when analyzed alone or in combination, can be used to help identify ARMD and other patients who have increased ocular oxidative stress and/or inflammation. For example, these responses may occur in the eye of ARMD or other patients as the disease progresses from its dry to wet forms or from less serious to more serious wet forms. Consequently, measurements of these factors could provide a way of diagnosing and following the progression of ARMD or other conditions in patients, especially when the measurements are made sequentially and compared repeatedly in the same individual.
A second aspect of the invention is that the effectiveness of treatments that alter oxidative stress can be assessed by the measurement, especially sequential measurement, of blood factors. […]

drusen = assay: Number of drusen in an ARMD patient following NAC treatment; assay type: in vivo; settings: FIG. 2

## CC(=O)N[C@@H](CS)C(=O)O [NAC, N-acetylcysteine]
[1]
  GSH levels: increased
drusen
  drusen (number of drusens, a retinal abnormality): decreased
